Source: ChEMBL document CHEMBL3046647, “Khayasin and 2S-methylbutanoylproceranolide: Promising candidate insecticides for the control of the coconut leaf beetle, Brontispa longissima” (2011)
In brackets after ≈: the same amount, converted by molar mass.

What was measured:
Format in all cases: functional
[1] = system: Brontispa longissima; assay: Insecticidal activity against Brontispa longissima fifth-instar larvae fed on compound pre-treated Cocos nucifera L. leaves assessed as insect mortality at 5 ug/ml measured 12 hr after compound treatment; conditions: in Cocos nucifera
[2] = system: Brontispa longissima; assay: Insecticidal activity against Brontispa longissima fifth-instar larvae fed on compound pre-treated Cocos nucifera L. leaves assessed as insect mortality at 10 ug/ml measured 12 hr after compound treatment; conditions: in Cocos nucifera
[3] = system: Brontispa longissima; assay: Insecticidal activity against Brontispa longissima fifth-instar larvae fed on compound pre-treated Cocos nucifera L. leaves assessed as insect mortality at 50 ug/ml measured 72 hr after compound treatment; conditions: in Cocos nucifera
[4] = system: Brontispa longissima; assay: Insecticidal activity against Brontispa longissima fifth-instar larvae fed on compound pre-treated Cocos nucifera L. leaves assessed as insect mortality at 5 ug/ml measured 24 hr after compound treatment; conditions: in Cocos nucifera
[5] = system: Brontispa longissima; assay: Insecticidal activity against Brontispa longissima fifth-instar larvae fed on compound pre-treated Cocos nucifera L. leaves assessed as insect mortality at 50 ug/ml measured 24 hr after compound treatment; conditions: in Cocos nucifera
[6] = system: Brontispa longissima; assay: Insecticidal activity against Brontispa longissima fifth-instar larvae fed on compound pre-treated Cocos nucifera L. leaves assessed as insect mortality at 50 ug/ml measured 48 hr after compound treatment; conditions: in Cocos nucifera
[7] = system: Brontispa longissima; assay: Insecticidal activity against Brontispa longissima fifth-instar larvae fed on compound pre-treated Cocos nucifera L. leaves assessed as insect mortality at 5 ug/ml measured 48 hr after compound treatment; conditions: in Cocos nucifera
[8] = system: Brontispa longissima; assay: Insecticidal activity against Brontispa longissima fifth-instar larvae fed on compound pre-treated Cocos nucifera L. leaves assessed as insect mortality at 50 ug/ml measured 12 hr after compound treatment; conditions: in Cocos nucifera
[9] = system: Brontispa longissima; assay: Insecticidal activity against Brontispa longissima fifth-instar larvae fed on compound pre-treated Cocos nucifera L. leaves assessed as insect mortality at 10 ug/ml measured 48 hr after compound treatment; conditions: in Cocos nucifera
[10] = system: Brontispa longissima; assay: Insecticidal activity against Brontispa longissima fifth-instar larvae fed on compound pre-treated Cocos nucifera L. leaves assessed as insect mortality measured 24 hr after compound treatment; conditions: in Cocos nucifera
[11] = system: Brontispa longissima; assay: Insecticidal activity against Brontispa longissima fifth-instar larvae fed on compound pre-treated Cocos nucifera L. leaves assessed as insect mortality measured 48 hr after compound treatment; conditions: in Cocos nucifera
[12] = system: Brontispa longissima; assay: Insecticidal activity against Brontispa longissima fifth-instar larvae fed on compound pre-treated Cocos nucifera L. leaves assessed as insect mortality at 10 ug/ml measured 24 hr after compound treatment; conditions: in Cocos nucifera
[13] = system: Brontispa longissima; assay: Insecticidal activity against Brontispa longissima fifth-instar larvae fed on compound pre-treated Cocos nucifera L. leaves assessed as insect mortality at 10 ug/ml measured 72 hr after compound treatment; conditions: in Cocos nucifera
[14] = system: Brontispa longissima; assay: Insecticidal activity against Brontispa longissima fifth-instar larvae fed on compound pre-treated Cocos nucifera L. leaves assessed as insect mortality at 5 ug/ml measured 72 hr after compound treatment; conditions: in Cocos nucifera
[15] = system: Spodoptera litura; assay: Antifeedant activity against Spodoptera litura third-instar larvae fed on compound pre-treated castor-oil plant leaves assessed as antifeedant rate at 1 mg/ml after 24 hr
[16] = system: Brontispa longissima; assay: Insecticidal activity against Brontispa longissima fourth-instar larvae fed on compound pre-treated Cocos nucifera L. leaves assessed as insect mortality at 50 ug/ml measured 24 hr after compound treatment; conditions: in Cocos nucifera
[17] = system: Spodoptera litura; assay: Antifeedant activity against Spodoptera litura third-instar larvae fed on compound pre-treated castor-oil plant leaves assessed as antifeedant rate at 0.5 mg/ml after 24 hr
[18] = system: Spodoptera litura; assay: Antifeedant activity against Spodoptera litura third-instar larvae fed on compound pre-treated castor-oil plant leaves assessed as antifeedant rate at 0.5 mg/ml after 48 hr
[19] = system: Brontispa longissima; assay: Insecticidal activity against Brontispa longissima fifth-instar larvae fed on compound pre-treated Cocos nucifera L. leaves assessed as insect mortality at 25 ug/ml measured 24 hr after compound treatment; conditions: in Cocos nucifera
[20] = system: Brontispa longissima; assay: Insecticidal activity against Brontispa longissima fifth-instar larvae fed on compound pre-treated Cocos nucifera L. leaves assessed as insect mortality at 25 ug/ml measured 12 hr after compound treatment; conditions: in Cocos nucifera
[21] = system: Brontispa longissima; assay: Insecticidal activity against Brontispa longissima fourth-instar larvae fed on compound pre-treated Cocos nucifera L. leaves assessed as insect mortality at 50 ug/ml measured 12 hr after compound treatment; conditions: in Cocos nucifera
[22] = system: Brontispa longissima; assay: Insecticidal activity against Brontispa longissima third-instar larvae fed on compound pre-treated Cocos nucifera L. leaves assessed as insect mortality at 50 ug/ml measured 24 hr after compound treatment; conditions: in Cocos nucifera
[23] = system: Brontispa longissima; assay: Insecticidal activity against Brontispa longissima fourth-instar larvae fed on compound pre-treated Cocos nucifera L. leaves assessed as insect mortality at 50 ug/ml measured 72 hr after compound treatment; conditions: in Cocos nucifera
[24] = system: Brontispa longissima; assay: Insecticidal activity against Brontispa longissima second-instar larvae fed on compound pre-treated Cocos nucifera L. leaves assessed as insect mortality at 50 ug/ml measured 24 hr after compound treatment; conditions: in Cocos nucifera
[25] = system: Brontispa longissima; assay: Insecticidal activity against Brontispa longissima third-instar larvae fed on compound pre-treated Cocos nucifera L. leaves assessed as insect mortality at 50 ug/ml measured 12 hr after compound treatment; conditions: in Cocos nucifera
[26] = system: Brontispa longissima; assay: Insecticidal activity against Brontispa longissima third-instar larvae fed on compound pre-treated Cocos nucifera L. leaves assessed as insect mortality at 50 ug/ml measured 48 hr after compound treatment; conditions: in Cocos nucifera
[27] = system: Brontispa longissima; assay: Insecticidal activity against Brontispa longissima second-instar larvae fed on compound pre-treated Cocos nucifera L. leaves assessed as insect mortality at 50 ug/ml measured 72 hr after compound treatment; conditions: in Cocos nucifera
[28] = system: Brontispa longissima; assay: Insecticidal activity against Brontispa longissima second-instar larvae fed on compound pre-treated Cocos nucifera L. leaves assessed as insect mortality at 50 ug/ml measured 48 hr after compound treatment; conditions: in Cocos nucifera
[29] = system: Brontispa longissima; assay: Insecticidal activity against Brontispa longissima third-instar larvae fed on compound pre-treated Cocos nucifera L. leaves assessed as insect mortality at 50 ug/ml measured 72 hr after compound treatment; conditions: in Cocos nucifera
[30] = system: Brontispa longissima; assay: Insecticidal activity against Brontispa longissima fifth-instar larvae fed on compound pre-treated Cocos nucifera L. leaves assessed as insect mortality at 25 ug/ml measured 48 hr after compound treatment; conditions: in Cocos nucifera
[31] = system: Spodoptera litura; assay: Insecticidal activity against Spodoptera litura third-instar larvae fed on compound pre-treated Ricinus communis L. leaves assessed as insect mortality at 1 mg/ml measured 12 days after compound treatment; conditions: in Ricinus communis
[32] = system: Brontispa longissima; assay: Insecticidal activity against Brontispa longissima second-instar larvae fed on compound pre-treated Cocos nucifera L. leaves assessed as insect mortality at 50 ug/ml measured 12 hr after compound treatment; conditions: in Cocos nucifera
[33] = system: Spodoptera litura; assay: Insecticidal activity against Spodoptera litura third-instar larvae fed on compound pre-treated Ricinus communis L. leaves assessed as insect mortality at 0.5 mg/ml measured 12 days after compound treatment; conditions: in Ricinus communis
[34] = system: Brontispa longissima; assay: Insecticidal activity against Brontispa longissima fifth-instar larvae fed on compound pre-treated Cocos nucifera L. leaves assessed as insect mortality at 25 ug/ml measured 72 hr after compound treatment; conditions: in Cocos nucifera
[35] = system: Brontispa longissima; assay: Insecticidal activity against Brontispa longissima fourth-instar larvae fed on compound pre-treated Cocos nucifera L. leaves assessed as insect mortality at 50 ug/ml measured 48 hr after compound treatment; conditions: in Cocos nucifera
[36] = system: Spodoptera litura; assay: Antifeedant activity against Spodoptera litura third-instar larvae fed on compound pre-treated castor-oil plant leaves assessed as antifeedant rate at 1 mg/ml after 48 hr

C=C(C)[C@H]1Cc2c(ccc3c2O[C@@H]2COc4cc(OC)c(OC)cc4[C@@H]2C3=O)O1 [ROTENONE]
mortality at 5 µg/mL [1]: 60%
mortality at 10 µg/mL [2]: 80%
mortality at 50 µg/mL [3]: 100%
mortality at 5 µg/mL [4]: 66.7%
mortality at 50 µg/mL [5]: 86.7%
mortality at 50 µg/mL [6]: 96.7%
mortality at 5 µg/mL [7]: 73.3%
mortality at 50 µg/mL [8]: 86.7%
mortality at 10 µg/mL [9]: 90%
LC50 [10]: 5.32 µg/mL (≈ 13.5 µM)
LC50 [11]: 1.61 µg/mL (≈ 4.08 µM)
mortality at 10 µg/mL [12]: 90%
mortality at 10 µg/mL [13]: 90%
mortality at 5 µg/mL [14]: 76.7%

CC[C@H](C)C(=O)O[C@@H]1[C@H]2CC3=C4CC(=O)O[C@@H](c5ccoc5)[C@]4(C)CC[C@@H]3[C@@](C)(C2=O)[C@@H](CC(=O)OC)C1(C)C [2'S-METHYLBUTANOYLPROCERANOLIDE]
Activity [15]: 48.4%
mortality at 50 µg/mL [16]: 0%
mortality at 50 µg/mL [3]: 100%
Activity [17]: 33.9%
mortality at 50 µg/mL [5]: 96.7%
mortality at 50 µg/mL [6]: 96.7%
Activity [18]: 41.7%
mortality at 25 µg/mL [19]: 80%
mortality at 25 µg/mL [20]: 76.7%
mortality at 50 µg/mL [21]: 0%
mortality at 50 µg/mL [8]: 96.7%
mortality at 50 µg/mL [22]: 7.14%
mortality at 50 µg/mL [23]: 0%
mortality at 50 µg/mL [24]: 6.67%
mortality at 50 µg/mL [25]: 3.57%
LC50 [10]: 10.6 µg/mL (≈ 19.1 µM)
LC50 [11]: 4.03 µg/mL (≈ 7.27 µM)
mortality at 50 µg/mL [26]: 7.14%
mortality at 50 µg/mL [27]: 23.3%
mortality at 50 µg/mL [28]: 16.7%
mortality at 50 µg/mL [29]: 14.3%
mortality at 25 µg/mL [30]: 83.3%
mortality at 1000 µg/mL [31]: 50%
mortality at 50 µg/mL [32]: 3.33%
mortality at 500 µg/mL [33]: 24.1%
mortality at 25 µg/mL [34]: 86.7%
mortality at 50 µg/mL [35]: 0%
Activity [36]: 53%

C/C=C(\C)C(=O)O[C@H]1C[C@@H](OC(C)=O)[C@@]2(C(=O)OC)CO[C@H]3[C@@H](O)[C@@](C)([C@]45O[C@@]4(C)[C@@H]4C[C@H]5O[C@@H]5OC=C[C@@]54O)[C@H]4[C@]1(CO[C@]4(O)C(=O)OC)[C@@H]32 [AZADIRACHTIN A]
mortality at 10 µg/mL [2]: 20%
mortality at 50 µg/mL [3]: 10%
mortality at 50 µg/mL [5]: 10%
mortality at 50 µg/mL [6]: 10%
mortality at 50 µg/mL [8]: 3.33%
mortality at 10 µg/mL [9]: 56.7%
mortality at 10 µg/mL [12]: 46.7%
mortality at 10 µg/mL [13]: 63.3%
